Converted amounts (≈) assume the structure as drawn. “And” between values parts separate entries of the source, which are not always exact repeats. Identical values can stand only once. Like-named read-outs stand apart in the source and are kept apart here. Where a SMILES comes first, the peptide text is derived from it. Bridges are numbered along the chain shown (N, C = ends). Roman numbers before positions name the chains, in order. [ ]: non-standard residue; d: D form. The star is where a group is joined. Myristoyl = CCCCCCCCCCCCCC(=O)*; Nle = CCCC[C@H](N)C(=O)O; Octanoyl = CCCCCCCC(=O)*
How the values were obtained:
[1] = system: Staphylococcus aureus ATCC 25923; type: cell-based
Description: (§1) Biofilm is associated with life-threating infections due to its outstanding resistance to antibiotics. In this study, the antibiofilm characteristics of USCLs and gemini surfactants were evaluated.
(§2) The MBECs were determined as described previously using 96-well polystyrene flat-bottom plates. For this purpose, 24 h cultures of microorganisms were diluted to obtain a final density of 5.0 × 10^5 CFU/mL and 2.0 × 10^5 CFU/mL of bacteria and fungi, respectively. Microorganisms were diluted in MHB or RPMI-1640 with 2% D-glucose (bacteria and fungi, respectively). Briefly, 100 µL of cell suspension was added into the test plates. After 24 h of incubation at 37 °C, the wells were rinsed three times with a PBS (pH 7.4) to remove non-adherent cells. Subsequently, 100 μL of the test compounds in a concentration range (1–512 μg/mL) were added to each well. After 24 h of incubation at 37 °C, 20 μL of a cell viability reagent was added (resazurin, 4 g/L; Sigma Aldrich, St. Louis, MO, USA). The MBEC was read after 1 h. The determined values were recorded as the lowest concentration at which the reduction of resazurin (from blue to pink) was lower or equal to 10 ± 0.5% as compared to the positive (100%) and negative (0%) controls. The reduction was monitored by measuring absorbance at 570 nm (reduced) and 600 nm (oxidized) using a microplate spectrophotometer (Multiskan GO Microplate Spectrophotometer, Thermo Fisher Scientific, Vantaa, Finland). All experiments were conducted in triplicate.

[2] = system: Klebsiella aerogenes ATCC 13048; type: cell-based
Description: as §1, §2

[3] = system: Enterococcus faecium ATCC 700221; type: cell-based
Description: as §1, §2

[4] = system: Candida albicans ATCC 10231; type: cell-based
Description: as §1, §2

[5] = system: Candida glabrata ATCC 15126; type: cell-based
Description: as §1, §2

[6] = system: Pseudomonas aeruginosa ATCC 9027; type: cell-based
Description: as §1, §2

[7] = system: Staphylococcus aureus ATCC 33591; type: cell-based
Description: as §1, §2

[8] = system: Klebsiella pneumoniae ATCC 700603; type: cell-based
Description: as §1, §2

[9] = system: Acinetobacter baumannii ATCC BAA 1605; type: cell-based
Description: as §1, §2

HaCaT cells = type: cell-based, human; conditions: 24 h
Description: Cells were trypsinized, and the medium was renewed 2–3 times per week. The cytotoxicity of compounds was assessed by the determination of cell metabolic activity by colorimetric CellTilter 96® Aqueous One Solution Cell Proliferation Assay (Promega, Madison, WI, USA), according to the manufacturer’s instructions. […] Every compound was medium-soluble in 37 °C; thus, the control cells were cultured with the medium. Serial dilutions of the tested compounds were always prepared prior to use. Cells were incubated with drugs for 24 h, and then, 20 μL of the CellTiter 96®AqueousOne Solution Reagent was added to each well containing cells maintained in 100 μL of culture medium.

[10] = Lipopeptide hydrophobicity by RP-HPLC (adjusted retention time); type: physicochemical; conditions: for Adjusted Retention Time: RP-HPLC, 20–65% acetonitrile over 30 min, indicator of hydrophobicity; for Difference in retention time calculated as tR’C—tR’B: between corresponding surfactants of series C and B
Description: (§3) The identity of the purified peptides was confirmed with electrospray ionization mass spectrometry (ESI-MS) in positive ion mode. Results of MS analyses and net charge are attached in Supplementary Materials (Table S1). Peptides’ hydrophobicity was evaluated by analytical reversed-phase high-performance liquid chromatography (RP-HPLC). The critical aggregation concentrations (CACs) of the lipopeptides were determined in unbuffered aqueous solution at 298 K by measuring the surface tension as a function of lipopeptide concentration. The measurements were carried out by the Du Noüy ring method on a K100 tensiometer. The surface tension data were plotted against the logarithm of lipopeptide concentration. CAC was found as the intersection of two lines being linear regression of data below and above CAC.
Lipopeptide hydrophobicity was determined as described previously. To do this, a Waters Alliance e2695 system with a Waters 2998 PDA Detector (software-Empower 3, Waters, Milford, MA, USA) was used. All analyses were carried out on a Waters X-Bridge Shield RP-18 column (3.0 × 100 mm, 3.5 μm particle size, 130 Å pore size). The Shield Technology column with embedded polar groups was used to minimize interactions of unreacted silanol groups with basic lipopeptides. The peptides were dissolved in water (0.1% TFA, v/v) up to a concentration of 1 mg/mL. UV detection at 214 nm was used, and samples (10 μL) were eluted with a linear 20–65% acetonitrile gradient in deionized water over 30 min at 25.0 ± 0.1 °C. The mobile phase flow rate was 0.5 mL/min. Both eluents contained 0.1% (v/v) of TFA. Each peptide sample was analyzed in triplicate. The maximum standard deviation and coefficient of variation were 0.044 and 0.85%, respectively.

[11] = Critical aggregation concentration by surface tension (Du Noüy ring, K100 tensiometer); type: physicochemical; conditions: for CAC / Surface Tension at CAC: unbuffered aqueous solution, 298 K
Description: as §3
The critical aggregation concentration (CAC) values were determined fully automatically using a K100 tensiometer (KRUSS, Hamburg, Germany) equipped with two micro dosimeters by measuring the surface tension vs. lipopeptide concentration. The measurements were performed in unbuffered aqueous solution at 298 K using the Du Noüy ring method. The accuracy of the surface tension measurements was 0.1 mN/m. The critical aggregation concentration (CAC) was defined as the intersection of two lines fitted to the experimental data collected before and after the inflection point.

| SMILES | MBEC Staphylococcus aureus ATCC 25923 ([1]; ATCC 25923, 24 h) | MBEC Klebsiella aerogenes ATCC 13048 ([2]; ATCC 13048, 24 h) | MBEC Enterococcus faecium ATCC 700221 ([3]; ATCC 700221, 24 h) | MBEC Candida albicans ATCC 10231 ([4]; ATCC 10231, 24 h) | MBEC Candida glabrata ATCC 15126 ([5]; ATCC 15126, 24 h) | MBEC Pseudomonas aeruginosa ATCC 9027 ([6]; ATCC 9027, 24 h) | MBEC Staphylococcus aureus ATCC 33591 ([7]; ATCC 33591, 24 h) | MBEC Klebsiella pneumoniae ATCC 700603 ([8]; ATCC 700603, 24 h) | MBEC Acinetobacter baumannii ATCC BAA 1605 ([9]; ATCC BAA 1605, 24 h) | IC50 (HaCaT cells) | Adjusted Retention Time [10] | Difference in retention time calculated as tR’C—tR’B [10] | CAC [11] | Surface Tension at CAC [11] | further results |
| --- | --- | --- | --- | --- | --- | --- | --- | --- | --- | --- | --- | --- | --- | --- | --- |
| CCCCCCCCCCCCCC(=O)N[C@@H](CCCNC(=N)N)C(=O)N[C@@H](CCCNC(=N)N)C(=O)N[C@@H](CSSC[C@H](NC(=O)[C@H](CCCNC(=N)N)NC(=O)[C@H](CCCNC(=N)N)NC(=O)CCCCCCCCCCCCC)C(N)=O)C(N)=O [Compound C4] (I: Myristoyl-Arg-Arg-Cys-NH2 / II: Myristoyl-Arg-Arg-Cys-NH2; disulfide I:3-II:3) | 512 µg/mL | 512 µg/mL | 64 µg/mL | 16 µg/mL | 64 µg/mL | >512 µg/mL | 128 µg/mL | 512 µg/mL | 512 µg/mL | 54.52 ± 15.40 µg/mL (≈ 42.5 µM) | 25.30 min | -0.03 min | 0.06 mM and 71.1 μg/mL | 47 mN/m | – |
| CCCCCCCC(=O)N[C@@H](Cc1ccccc1)C(=O)N[C@@H](CCCNC(=N)N)C(=O)N[C@@H](CCCNC(=N)N)C(=O)N[C@@H](CSSC[C@H](NC(=O)[C@H](CCCNC(=N)N)NC(=O)[C@H](CCCNC(=N)N)NC(=O)[C@H](Cc1ccccc1)NC(=O)CCCCCCC)C(N)=O)C(N)=O [Compound C5] (I: Octanoyl-FRRC-NH2 / II: Octanoyl-FRRC-NH2; disulfide I:4-II:4) | – | – | – | – | – | – | – | – | – | – | 15.42 min | 0.23 min | 2.58 mM and 3632.7 μg/mL | 37 mN/m | MBEC Staphylococcus aureus ATCC 25923 ([1]; 24 h biofilm on polystyrene): 64 µg/mL; MBEC Klebsiella aerogenes ATCC 13048 ([2]; 24 h biofilm on polystyrene): 256 µg/mL; MBEC Enterococcus faecium ATCC 700221 ([3]; 24 h biofilm on polystyrene): 8 µg/mL; MBEC Candida albicans ATCC 10231 ([4]; 24 h biofilm on polystyrene): 128 µg/mL; MBEC Candida glabrata ATCC 15126 ([5]; 24 h biofilm on polystyrene): 256 µg/mL; MBEC Pseudomonas aeruginosa ATCC 9027 ([6]; 24 h biofilm on polystyrene): 512 µg/mL; MBEC Staphylococcus aureus ATCC 33591 ([7]; 24 h biofilm on polystyrene): 8 µg/mL; MBEC Klebsiella pneumoniae ATCC 700603 ([8]; 24 h biofilm on polystyrene): 256 µg/mL; MBEC Acinetobacter baumannii ATCC BAA 1605 ([9]; 24 h biofilm on polystyrene): 512 µg/mL; IC50 (HaCaT cells; HaCaT, MTS): 146.63 ± 14.95 µg/mL (≈ 104 µM) |
| CCCCCCCC(=O)N[C@@H](CCCC)C(=O)N[C@@H](CCCNC(=N)N)C(=O)N[C@@H](CCCNC(=N)N)C(=O)N[C@@H](CSSC[C@H](NC(=O)[C@H](CCCNC(=N)N)NC(=O)[C@H](CCCNC(=N)N)NC(=O)[C@H](CCCC)NC(=O)CCCCCCC)C(N)=O)C(N)=O [Compound C6] (I: Octanoyl-[Nle]RRC-NH2 / II: Octanoyl-[Nle]RRC-NH2; disulfide I:4-II:4) | 32 µg/mL | 256 µg/mL | 8 µg/mL | 256 µg/mL | 512 µg/mL | 512 µg/mL | 8 µg/mL | 256 µg/mL | 512 µg/mL | 248.83 ± 18.81 µg/mL (≈ 185 µM) | 14.29 min | 0.33 min | 4.28 mM and 5737.7 μg/mL | 35 mN/m | – |
| CCCCCCC(CCCC)C(=O)N[C@@H](CCCNC(=N)N)C(=O)N[C@@H](CCCNC(=N)N)C(=O)N[C@@H](CSSC[C@H](NC(=O)[C@H](CCCNC(=N)N)NC(=O)[C@H](CCCNC(=N)N)NC(=O)C(CCCC)CCCCCC)C(N)=O)C(N)=O (stereo partly drawn) [Compound C7] | 32 µg/mL | 128 µg/mL | 4 µg/mL | 64 µg/mL | 128 µg/mL | 512 µg/mL | 8 µg/mL | 256 µg/mL | 256 µg/mL | 163.98 ± 13.66 µg/mL (≈ 134 µM) | 14.83 min | 0.15 min | 6.21 mM and 7628.1 μg/mL | 35 mN/m | increase in the CAC value by branching of the acyl chains ([11]; C7 compared with C3): ca. 25 fold |

From PMC8036666, “Biological and Physico-Chemical Characteristics of Arginine-Rich Peptide Gemini Surfactants with Lysine and Cystine Spacers” (International Journal of Molecular Sciences, 2021)
